Reference: US20240158446A1, “CYCLIC COMPOUND HAVING SELECTIVE INHIBITORY ACTION ON KRAS OVER HRAS AND NRAS” (CHUGAI SEIYAKU KABUSHIKI KAISHA, priority 2021, published 2024)
Like-named read-outs stand apart in the source and are kept apart here. Where a SMILES comes first, the peptide text is derived from it. Bridges are numbered along the chain shown (N, C = ends). [ ]: non-standard residue; d: D form. The star is where a group is joined. hPhe(3-Cl-4-CF3) = N[C@@H](CCc1ccc(C(F)(F)F)c(Cl)c1)C(=O)O; NPrPhe(4-CF3) = CCCN[C@@H](Cc1ccc(C(F)(F)F)cc1)C(=O)O; NMeGly(cPent) = CN[C@H](C(=O)O)C1CCCC1; Hyp = O=C(O)[C@@H]1C[C@@H](O)CN1; NMeD = CN[C@@H](CC(=O)O)C(=O)O; NMeL = CN[C@@H](CC(C)C)C(=O)O; Pip = O=C(O)[C@@H]1CCCCN1; Morpholide = C1CN(*)CCO1; NMeA = CN[C@@H](C)C(=O)O; Ac5c = NC1(C(=O)O)CCCC1; Aze = O=C(O)[C@@H]1CCN1; Ac4c = NC1(C(=O)O)CCC1; NEtG = CCNCC(=O)O; Sar = CNCC(=O)O

Columns and labels:
[1] = target: GDP-bound HRAS wild-type protein (Homo sapiens, UniProt P01112); test: Binding to HRAS by surface plasmon resonance (SPR), Single Cycle Kinetics; conditions: SPR, GDP-bound HRAS wild-type protein vs GDP-bound KRAS wild-type protein
[2] = target: GDP-bound NRAS wild-type protein (Homo sapiens, UniProt P01111); test: Binding to NRAS by surface plasmon resonance (SPR), Single Cycle Kinetics; conditions: SPR, GDP-bound NRAS wild-type protein vs GDP-bound KRAS wild-type protein
[3] = target: GDP-bound KRAS wild-type protein (Homo sapiens, UniProt P01116); test: Binding to KRAS by surface plasmon resonance (SPR), Single Cycle Kinetics; conditions: GDP-bound KRAS wild-type protein, read-out: KRAS KD
[4] = SPR Single Cycle Kinetics, 1:1 binding model

GDP-bound KRAS wild-type protein, sequence (P01116 whole entry): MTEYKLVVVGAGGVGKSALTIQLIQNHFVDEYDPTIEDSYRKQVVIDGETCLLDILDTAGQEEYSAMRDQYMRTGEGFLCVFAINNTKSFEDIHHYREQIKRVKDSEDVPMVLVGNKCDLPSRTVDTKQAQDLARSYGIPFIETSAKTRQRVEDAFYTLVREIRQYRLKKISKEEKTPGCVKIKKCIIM
GDP-bound HRAS wild-type protein, sequence (P01112 whole entry): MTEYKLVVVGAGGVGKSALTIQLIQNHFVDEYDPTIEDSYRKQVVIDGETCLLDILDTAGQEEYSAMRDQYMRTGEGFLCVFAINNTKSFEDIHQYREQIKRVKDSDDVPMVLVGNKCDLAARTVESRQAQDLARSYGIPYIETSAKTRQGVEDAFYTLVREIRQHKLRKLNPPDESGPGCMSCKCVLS
GDP-bound NRAS wild-type protein, sequence (P01111 whole entry): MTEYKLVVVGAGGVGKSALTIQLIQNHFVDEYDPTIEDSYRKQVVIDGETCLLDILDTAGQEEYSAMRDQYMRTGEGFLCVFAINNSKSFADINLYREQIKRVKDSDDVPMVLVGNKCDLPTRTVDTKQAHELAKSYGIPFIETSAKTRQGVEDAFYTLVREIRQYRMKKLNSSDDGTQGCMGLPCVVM

Kd ([3]; SPR, Single Cycle Kinetics)	Kd [3, 4]	SMILES	HRAS/KRAS (ratio of KD value for HRAS to KD value for KRAS) [1]	NRAS/KRAS (ratio of KD value for NRAS to KD value for KRAS) [2]	HRAS/KRAS (ratio of KD value with respect to HRAS to KD value with respect to KRAS) [1]	NRAS/KRAS (ratio of KD value with respect to NRAS to KD value with respect to KRAS) [2]
0.034 nM		CC[C@H](C)[C@@H]1NC(=O)[C@@H]2CCCCCCc3ccc(cc3)C[C@@H](C(=O)N(C)CC(=O)N[C@@H](CCc3ccc(C(F)(F)F)c(OC)c3)C(=O)N3CC4(CC4)C[C@H]3C(=O)NC3(CC(C)(C)C3)C(=O)N(C)[C@@H](C3CCCC3)C(=O)N(C)[C@H](C(=O)N(C)C)CC(=O)N2C)N2CC/C=C\C[C@@H](C2=O)N(C)C(=O)CN(C)C1=O [PP3069]	B (a compound having 3 or more and less than 10 is denoted as B)	A (a compound having 10 or more and less than 20 is denoted as A)		
1.1 nM		CC[C@H](C)[C@@H]1NC(=O)[C@H](COC)N(C)C(=O)C[C@@H](C(=O)N2CCOCC2)N(C)C(=O)[C@H](C2CCCC2)N(C)C(=O)C2(CCC2)NC(=O)[C@@H]2CCCN2C(=O)[C@H](CCc2cc(F)c(C(F)(F)F)c(F)c2)NC(=O)CN(C)C(=O)[C@H](Cc2ccc(C(F)(F)F)cc2)N2CCCCC[C@@H](C2=O)N(C)C(=O)[C@@H]2CCN2C1=O [PP0865]	B (a compound having 3 or more and less than 10 is denoted as B)	B (a compound having 3 or more and less than 10 is denoted as B)		
0.99 nM		CC[C@H](C)[C@@H]1NC(=O)[C@H](COC)N(C)C(=O)C[C@@H](C(=O)N2CCOCC2)N(C)C(=O)[C@H](C2CCCC2)N(C)C(=O)C2(CCCC2)NC(=O)[C@@H]2CC(F)(F)CN2C(=O)[C@H](CCc2cc(F)c(C(F)(F)F)c(F)c2)NC(=O)CN(C)C(=O)[C@H](Cc2ccc(C(F)(F)F)cc2)N2CCCCC[C@@H](C2=O)N(C)C(=O)CN(C)C1=O [PP0846]	B (a compound having 3 or more and less than 10 is denoted as B)	B (a compound having 3 or more and less than 10 is denoted as B)		
0.15 nM		CCO[C@@H]1C[C@H]2C(=O)NC3(CCC3)C(=O)N(C)[C@@H](C3CCCC3)C(=O)N(C)[C@H](C(=O)N3CCOCC3)CC(=O)N(C)[C@@H](CC)C(=O)N[C@@H]([C@@H](C)CC)C(=O)N(C)CC(=O)N(C)[C@H]3C/C=C\CCN(C3=O)[C@@H](Cc3ccc(C(F)(F)F)cc3)C(=O)N(C)CC(=O)N[C@@H](CCc3cc(F)c(C(F)(F)F)c(F)c3)C(=O)N2C1 [PP1092]	A (a compound having 10 or more and less than 20 is denoted as A)	A (a compound having 10 or more and less than 20 is denoted as A)		

Second part, the compound before the results:

SMILES	Kd ([3]; SPR, Single Cycle Kinetics)	Kd [3, 4]	HRAS/KRAS (ratio of KD value for HRAS to KD value for KRAS) [1]	NRAS/KRAS (ratio of KD value for NRAS to KD value for KRAS) [2]	HRAS/KRAS (ratio of KD value with respect to HRAS to KD value with respect to KRAS) [1]	NRAS/KRAS (ratio of KD value with respect to NRAS to KD value with respect to KRAS) [2]
CCCN1C(=O)CN(C)C(=O)CN(CC)C(=O)[C@H]([C@@H](C)CC)NC(=O)[C@H](CC(C)C)N(C)C(=O)C[C@@H](C(=O)N(C)C)NC(=O)[C@H](C2CCCC2)N(C)C(=O)C2(CCC2)NC(=O)[C@@H]2CCCN2C(=O)[C@H](CCc2ccc(C(F)(F)F)c(Cl)c2)NC(=O)CN(C)C(=O)[C@@H]1Cc1ccc(C(F)(F)F)cc1 [PP0368] ([NMeL]I[NEtG][Sar][NPrPhe(4-CF3)][Sar][hPhe(3-Cl-4-CF3)]P[Ac4c][NMeGly(cPent)]D-NMe2; lactam N-11)		1.7 nM	B (a compound having 3 or more and less than 10 is denoted as B)	B (a compound having 3 or more and less than 10 is denoted as B)		
CCO[C@@H]1C[C@H]2C(=O)NC3(CCC3)C(=O)N(C)[C@@H](C3CCCC3)C(=O)N(C)[C@H](C(=O)N(C)C)CC(=O)N(C)[C@@H](CC(C)(C)C)C(=O)N[C@@H]([C@@H](C)CC)C(=O)N(C)CC(=O)N(C)[C@H]3CCCCN(C3=O)[C@@H](Cc3ccc(C(F)(F)F)cc3)C(=O)N(C)CC(=O)N[C@@H](CCc3cc(F)c(C(F)(F)F)c(F)c3)C(=O)N2C1 [PP0699]		0.036 nM			C (A compound having a KD ratio of 0.1 or more and less than 3 is denoted as C)	C (A compound having a KD ratio of 0.1 or more and less than 3 is denoted as C)
CC[C@H](C)[C@@H]1NC(=O)[C@H](CC(C)C)N(C)C(=O)C[C@@H](C(=O)N2CCOCC2)N(C)C(=O)[C@H](C2CCCC2)N(C)C(=O)C2(CCCC2)NC(=O)[C@@H]2[C@@H](O)CCN2C(=O)[C@H](CCc2cc(F)c(C(F)(F)F)c(F)c2)NC(=O)CN(C)C(=O)[C@H](Cc2ccc(C(F)(F)F)cc2)N2CCCCC[C@@H](C2=O)N(C)C(=O)CN(C)C1=O [PP0662]		3.1 nM			B (a compound having 3 or more and less than 10 is denoted as B)	B (a compound having 3 or more and less than 10 is denoted as B)
CCCN1C(=O)[C@@H]2CCN2C(=O)CN(C)C(=O)[C@H]([C@@H](C)CC)NC(=O)[C@H](CC(C)C)N(C)C(=O)C[C@@H](C(=O)N2CCOCC2)N(C)C(=O)[C@H](C2CCCC2)N(C)C(=O)C2(CCC2)NC(=O)[C@@H]2C[C@@H](OCC)CN2C(=O)[C@H](CCc2ccc(C(F)(F)F)c(Cl)c2)NC(=O)CN(C)C(=O)[C@@H]1Cc1ccc(C(F)(F)F)cc1 [PP0411] ([NMeL]I[Sar][Aze][NPrPhe(4-CF3)][Sar][hPhe(3-Cl-4-CF3)][Hyp](Et)[Ac4c][NMeGly(cPent)][NMeD]-Morpholide; lactam N-11)		0.046 nM			C (A compound having a KD ratio of 0.1 or more and less than 3 is denoted as C)	C (A compound having a KD ratio of 0.1 or more and less than 3 is denoted as C)
CCCN1C(=O)[C@@H]2CCN2C(=O)[C@H](C)N(C)C(=O)[C@H]([C@@H](C)CC)NC(=O)[C@H](CC(C)C)N(C)C(=O)C[C@@H](C(=O)N2CCOCC2)N(C)C(=O)[C@H](C2CCCC2)N(C)C(=O)C2(CCCC2)NC(=O)[C@@H]2CCCCN2C(=O)[C@H](CCc2ccc(C(F)(F)F)c(Cl)c2)NC(=O)CN(C)C(=O)[C@@H]1Cc1ccc(C(F)(F)F)cc1 [PP0284] ([NMeL]I[NMeA][Aze][NPrPhe(4-CF3)][Sar][hPhe(3-Cl-4-CF3)][Pip][Ac5c][NMeGly(cPent)][NMeD]-Morpholide; lactam N-11)		0.67 nM	B (a compound having 3 or more and less than 10 is denoted as B)	C (A compound having a KD ratio of 0.1 or more and less than 3 is denoted as C)		
CCO[C@@H]1C[C@H]2C(=O)NC3(CCC3)C(=O)N(C)[C@@H](C3CCCC3)C(=O)N(C)[C@H](C(=O)N(C)C)CC(=O)N(C)C[C@@H](C)C(=O)N[C@@H]([C@@H](C)CC)C(=O)N(C)CC(=O)N(C)[C@H]3CCCCN(C3=O)[C@@H](Cc3ccc(C(F)(F)F)cc3)C(=O)N(C)CC(=O)N[C@@H](CCc3cc(F)c(C(F)(F)F)c(F)c3)C(=O)N2C1 [PP0706]		3.6 nM			B (a compound having 3 or more and less than 10 is denoted as B)	B (a compound having 3 or more and less than 10 is denoted as B)
